Experimental data reported in patent publication US8455530B2, “Crystalline form of an alkoxyimidazol-1-ylmethyl biphenyl carboxylic acid” (Theravance, Inc., priority 2008, dated 2013).
“Also recorded” adds a separate entry of the source. Where a name gives a salt, the structure may show the parent alone. Each block holds one compound with its values, some of them ahead of it.

How the values were obtained:
[1] = Thermal stability (heating at 60° C.); format: physicochemical
Method: A sample of the crystalline form prepared as in Example 6 was heated at 60° C. for 5 days. The sample lost only 2% of its purity, thus the crystalline compound of the invention has excellent thermal stability.

[2] = Dynamic moisture sorption (DMS) assessment; format: physicochemical
Method: A dynamic moisture sorption (DMS) assessment (also known as a moisture sorption-desorption profile) was performed for a sample of the crystalline form of Example 2 using a VTI atmospheric microbalance, SGA-100 system (VTI Corp., Hialeah, Fla. 33016). A sample size of approximately 4.27 mg was used and the humidity was set at the ambient value at the start of the analysis. The DMS analysis consisted of a scan rate of 5% RH/step over the full humidity range of 2% relative humidity (RH) to 90% RH. The DMS run was performed isothermally at 25° C.

[3] = Differential scanning calorimetry (thermal stability); format: physicochemical; conditions: 10° C./min from 22° C. to 250° C.; listed as crystalline compound of the invention
Method: Differential scanning calorimetry (DSC) was performed using a TA Instruments Model Q-100 module with a Thermal Analyst controller. Data were collected and analyzed using TA Instruments Thermal Solutions software. A 1.64 mg sample of the crystalline form of Example 2 was accurately weighed into a covered aluminum pan. After a 5 minute isothermal equilibration period at 22° C., the sample was heated using a linear heating ramp of 10° C./min from 22° C. to 250° C.

[4] = target: T1, human AT1 receptor (Homo sapiens, UniProt P30556); experiment: AT1 radioligand binding assay ([Eu]AngII displacement); conditions: [Eu]AngII at 2 nM, membranes of CHO-K1 cells expressing human AT1; read-out: pKi at the AT1 receptor (converted)
T1 construct: expressed in transfected cells; membrane preparation
T1 sequence (P30556 1-359): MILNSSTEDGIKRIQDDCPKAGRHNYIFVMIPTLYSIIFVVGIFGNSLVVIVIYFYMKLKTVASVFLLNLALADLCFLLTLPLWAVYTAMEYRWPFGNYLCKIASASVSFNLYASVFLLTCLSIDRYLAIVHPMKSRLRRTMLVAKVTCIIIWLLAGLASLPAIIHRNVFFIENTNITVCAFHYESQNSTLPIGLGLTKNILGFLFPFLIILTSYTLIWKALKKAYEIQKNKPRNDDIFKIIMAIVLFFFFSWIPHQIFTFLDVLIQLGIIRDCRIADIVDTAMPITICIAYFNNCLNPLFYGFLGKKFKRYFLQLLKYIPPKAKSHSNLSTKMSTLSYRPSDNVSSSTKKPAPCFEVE
Method: These in vitro assays were used to assess the ability of test compounds to bind to the AT1 and the AT2 receptors.
Membrane Preparation From Cells Expressing Human AT1 or AT2 Receptors
Chinese hamster ovary (CHO-K1) derived cell lines stably expressing the cloned human AT1 or AT2 receptors, respectively, were grown in HAM's-F12 medium supplemented with 10% fetal bovine serum, 10 μg/ml penicillin/streptomycin, and 500 μg/ml geneticin in a 5% CO2 humidified incubator at 37° C. AT2 receptor expressing cells were grown in the additional presence of 100 nM PD123,319 (AT2 antagonist). When cultures reached 80-95% confluence, the cells were washed thoroughly in PBS and lifted with 5 mM EDTA. Cells were pelleted by centrifugation and snap frozen in MeOH-dry ice and stored at −80° C. until further use.
For membrane preparation, cell pellets were resuspended in lysis buffer (25 mM Tris/HCl pH 7.5 at 4° C., 1 mM EDTA, and one tablet of Complete Protease Inhibitor Cocktail Tablets with 2 mM EDTA per 50 mL buffer (Roche cat.#1697498, Roche Molecular Biochemicals, Indianapolis, Ind.)) and homogenized using a tight-fitting Dounce glass homogenizer (10 strokes) on ice. The homogenate was centrifuged at 1000×g, the supernatant was collected and centrifuged at 20,000×g. […] Protein concentration of the membrane suspension was determined by the method described in Bradford (1976) Anal Biochem. 72:248-54. […]

[5] = Solid state stability assessment (storage, HPLC purity); format: physicochemical; conditions: for change in chemical purity after 28 days of storage at 40° C.: HPLC
Method: Samples of the crystalline freebase prepared as in Example 7, about 100 mg each, were stored in multiple vials at 5° C. (closed container), 25° C. (closed container), and at 40° C. (closed container). At specific intervals, the entire contents of a representative vial was analyzed by the following HPLC method:
Column: Agilent Zorbox SB-C18, 4.6×250 mm, 5 μm (Part No. 880975-902). Mobile Phase A: 80% H2O, 20% MeCN, 0.01% TFA. Mobile Phase B: 80% MeCN, 20% H2O, 0.01% TFA. Flow rate: 1 mL/min. Injection Volume: 20 μL. Detector: 250 nm.
The purity of the samples was determined by HPLC area percentage (% AUC).

[6] = as above; format: physicochemical; conditions: for purity at time 0: HPLC area percentage
[7] = Micronization with a jet mill, particle size distribution; format: physicochemical
Description: A sample of the crystalline freebase prepared as in Example 7 was micronized with a jet mill to give a free-flowing white powder. No issues were encountered during the micronization process.

[8] = closed container, listed as amorphous freebase
[9] = closed container, listed as crystalline freebase
[10] = all conditions: 5° C., 25° C. and 40° C., closed container

Structure (SMILES): CCOc1nc(CC)c(CNC(=O)[C@@H](S)CC(C)C)n1Cc1ccc(-c2ccccc2C(=O)O)cc1F [Example 6, 4′-{2-Ethoxy-4-ethyl-5-[((S)-2-mercapto-4-methylpentanoylamino)methyl]imidazol-1-ylmethyl}-3′-fluorobiphenyl-2-carboxylic Acid]
- loss of purity ([1]; heated at 60° C. for 5 days): 2%

Structure (SMILES): CCOc1nc(CC)c(CNC(=O)[C@@H](S)CC(C)C)n1Cc1ccc(-c2ccccc2C(=O)O)cc1F [Example 2, 4′-{2-Ethoxy-4-ethyl-5-[((S)-2-mercapto-4-methylpentanoylamino)methyl]imidazol-1-ylmethyl}-3′-fluorobiphenyl-2-carboxylic Acid]
- weight gain in the humidity range of 40-75% RH ([2]; unmicronized): less than 1%
- weight gain when exposed to up to 75% relative humidity ([2]; up to 75% RH, 25° C.): less than 1%
- thermal decomposition (DSC thermograph) [3]: no significant thermal decomposition below about 150 °C

Structure (SMILES): CCOc1nc(CC)c(CNC(=O)[C@@H](S)CC(C)C)n1Cc1ccc(-c2ccccc2C(=O)O)cc1F [Example 1, 4′-{2-Ethoxy-4-ethyl-5-[((S)-2-mercapto-4-methylpentanoylamino)methyl]imidazol-1-ylmethyl}-3′-fluorobiphenyl-2-carboxylic Acid]
- loss of purity ([1]; heated at 60° C. for 1 day): about 50%
- Ki [4]: < 100 nM
- purity after 14 days at 40° C. [5, 8]: 82.4 % AUC
- change in chemical purity after 28 days of storage at 40° C. ([5]; 28 days at 40° C., listed as amorphous freebase): decline in purity
- purity after 7 days at 40° C. [6, 8]: 86.8 % AUC
- purity at time 0 ([6]; listed as amorphous freebase): 97.5 % AUC

More lines, main results first:

- purity after 14 days at 40° C. ([5]; closed container): 62.2 % AUC
- change in chemical purity after 28 days of storage at 40° C. ([5]; 28 days at 40° C.): decline in purity
- purity after 28 days at 40° C. ([5]; 28 days at 40° C., closed container): 47.1 % AUC
- purity at time 0 ([5]; HPLC area percentage, time 0): 97.7 % AUC
- purity after 7 days at 40° C. ([6]; closed container): 73.5 % AUC
Structure (SMILES): CCOc1nc(CC)c(CNC(=O)[C@@H](S)CC(C)C)n1Cc1ccc(-c2ccccc2C(=O)O)cc1F [amorphous TFA salt, 4′-{2-ethoxy-4-ethyl-5-[((S)-2-mercapto-4-methylpentanoyl-amino)methyl]imidazol-1-ylmethyl}-3′-fluorobiphenyl-2-carboxylic acid]

- purity after 14 days at 40° C. [5, 9]: 98.3 % AUC
- change in chemical purity after 28 days of storage [5, 10]: no detectable change in chemical purity
- particle size D (v, 0.1) ([7]; Post-Micronization): 0.79 μm
- particle size D (v, 0.5) ([7]; Post-Micronization): 2.59 μm
- particle size D (v, 0.9) ([7]; Post-Micronization): 7.07 μm
- particle size D (v, 0.1) ([7]; Pre-Micronization): 1.73 μm
- particle size D (v, 0.5) ([7]; Pre-Micronization): 11.32 μm
- particle size D (v, 0.9) ([7]; Pre-Micronization): 50.73 μm
- weight gain in the humidity range of 40-75% RH ([2]; micronized material): 0.7%
- purity after 7 days at 40° C. [6, 9]: 98.4 % AUC
- purity after 28 days at 40° C. ([6]; 28 days at 40° C., closed container, listed as crystalline freebase): 98.4 % AUC
- purity at time 0 ([6]; listed as crystalline freebase): 98.5 % AUC
- change in the appearance of the material after 28 days of storage [6, 10]: no observable change in the appearance
Structure (SMILES): CCOc1nc(CC)c(CNC(=O)[C@@H](S)CC(C)C)n1Cc1ccc(-c2ccccc2C(=O)O)cc1F [Example 7, 4′-{2-Ethoxy-4-ethyl-5-[((S)-2-mercapto-4-methylpentanoylamino)methyl]imidazol-1-ylmethyl}-3′-fluorobiphenyl-2-carboxylic Acid]
- change in chemical purity after 28 days of storage at 40° C. ([5]; 28 days at 40° C., listed as crystalline freebase): no detectable change in chemical purity; also recorded: minimal chemical degradation
